Results as given in PMC5154303, “Flavonol and imidazole derivatives block HPV16 E6 activities and reactivate apoptotic pathways in HPV^+ cells” (Cell Death & Disease, 2016).

Key:
UMSCC 47 = test: Sensitization to doxorubicin in HPV+ HNSCC line UMSCC 47 (MTT); type: cell-based, human; conditions: HPV+ #47, 12.5 μM compound 4 h, 2 μM doxorubicin
Experimental: (§1) Figure 8 Myricetin and spinacine (5) can re-sensitize HPV^+, but not HPV^−, HNSCC cell lines to treatment with doxorubicin. Two HPV^− (UMMSCC 29 and SCC 84) and three HPV^+ (UMSCC 47, UPCI-SCC90-UP-Clone 35, and UM-SCC47-TC Clone 3) head and neck cancer cell lines (2 × 10^4 cells per well) were seeded into 96-well plates and allowed to incubate overnight, and then cells were pretreated with myricetin or spinacine (0–12.5 μM) for 4 h. In all, 2 μM of doxorubicin was added, and the cells were allowed to incubate overnight. Cell viability was measured by MTT assay, and the viability of cells untreated with small molecules was set at 100%. Experiments were performed in triplicate, and error bars indicate the S.D.
(§2) The extracellular domain of human TRAIL was cloned into a pTriEx expression plasmid containing N-terminal Hisx6 tag. His-TRAIL was expressed in the E. coli BL-21 pLys strain and purified as previously described. Doxorubicin and cisplatin were purchased from Sigma. His-TRAIL, doxorubicin, and cisplatin were diluted in PBS to the desired concentration before using. […] All experiments were repeated at least three times (three biological replicates, carried out on different days), with each experimental group measured in triplicate within each of these individual experiments. […]

GST-E6/His-E6AP = target: T1, GST-E6/His-E6AP (Human papillomavirus type 16, UniProt P03126); test: AlphaScreen bead-based binding assay GST-E6/His-E6AP; parameters: species or system HPV 16
T1 construct: made in house
Experimental: (§3) Figure 2 3-(1H-indol-1yl)propan-1-amine (1), three benzimidazole derivatives (2–4), and spinacine (5) inhibit protein–protein interactions. Five compounds at the indicated concentrations (1.4 μM–3.2 mM) were tested using our bead-based screening assay for their ability to inhibit three different protein/protein interactions: (a) GST-E6/His-caspase 8; (b) GST-E6/HisE6AP; and (c) GST-caspase 8/His-caspase 8. Binding in the presence of 1.4 μM of the test compound was set at 100%. Experiments were performed in triplicate, and error bars indicate the S.D.
(§4) The construction of the pGEX-E6, pTriEx-E6AP, and pTriEx-Caspase-8 DED plasmids has been reported.[33] Expression and purification of GSTE6, His-E6AP, and His-Caspase-8 DED were carried out as previously described.[33], [37] GST-tagged and His-tagged proteins were diluted into GST dilution buffer (PBS pH 8.0, 5% glycerol, 2 mM DTT) and His dilution buffer (20 mM Hepes pH 7.4, 150 mM NaCl, 2 mMKCl, 5% glycerol, 2 mM DTT), respectively. Protein concentration was measured using Coomassie Plus – The Better Bradford Assay Reagent (Thermo Scientific, Waltham, MA, USA). Purity of the isolated proteins was estimated following separation by sodium dodecyl sulfate-polyacrylamide gel electrophoresis (SDS-PAGE) and Coomassie staining.
(§5) AlphaScreen Technology was used to assess the interactions between GST-E6, GST-caspase 8, His-E6AP, and His-caspase 8. Binding assays were performed in white 384-well plates (Perkin-Elmer) in a total volume of 25 μl as previously described.[33] Briefly, 5 μl (50 ng) of GST-E6 and 5 μl (87.5 ng) of His-caspase 8 were included in each reaction mixture with 5 μl blocking buffer (0.5 mg BSA, 0.5% Tween 20 in PBS) in the absence or presence of 10 μM of each test chemical. Members of the library were present at 10 μM in DMSO. After a 1-h incubation of the mixture at room temperature, 5 μl donor beads and 5 μl acceptor beads (Perkin-Elmer) were added to each well according to the manufacturer's protocol. The mixture was incubated in the dark at room temperature overnight, and the emitted signal was detected using the Envision Multilabel plate reader (Perkin-Elmer). In the presence of test chemicals, the binding affinity was calculated as a percentage of the binding in the presence of carrier only (DMSO).

GST-E6/His-caspase 8 = target: T2, GST-E6/His-caspase 8 (Human papillomavirus type 16, UniProt P03126); test: AlphaScreen bead-based binding assay GST-E6/His-caspase 8; parameters: species or system HPV 16
T2 construct: made in house
Experimental: as §3, §4, §5

UM-SCC47-TC-Clone 3 = test: Sensitization to doxorubicin in HPV+ HNSCC line UM-SCC47-TC-Clone 3 (MTT); type: cell-based, human; conditions: HPV+ #47CL3, 12.5 μM compound 4 h, 2 μM doxorubicin
Experimental: as §1, §2

[1] = target: GST-caspase 8/His-caspase 8 (Homo sapiens, UniProt Q14790); test: AlphaScreen counter-screen GST-caspase 8/His-caspase 8; type: binding; conditions: counter-screen, bead-based assay, 1.4 μM–3.2 mM tested
Experimental: as §3
To ask whether this inhibition was specific, we employed a counter-screening assay in which we assessed the ability of candidates to inhibit the binding of GST-caspase 8 to His-caspase 8; those that did were to be eliminated. In this counter-screening assay, the materials in each well were the same as in the primary screen, with the exception that GST-caspase 8 replaced GST-E6.
as §5

UPCI-SCC90-UP-Clone 35 = test: Sensitization to doxorubicin in HPV+ HNSCC line UPCI-SCC90-UP-Clone 35 (MTT); type: cell-based, human; conditions: HPV+ #90, 12.5 μM compound 4 h, 2 μM doxorubicin
Experimental: as §1, §2

C33A cells = test: TRAIL-mediated apoptosis in HPV− C33A cells (MTT); type: cell-based, human; conditions: 100 μM myricetin pretreatment 4 h, TRAIL + cycloheximide
Experimental: Figure 5 Myricetin and spinacine (5) can re-sensitize HPV^+, but not HPV^−, cells to treatment with TRAIL. SiHa (2 × 10^4 cells per well) and C33A cells (1 × 10^4 cells per well) were seeded into a 96-well plate and allowed to incubate overnight, and then cells were pretreated in the presence or absence of (a) myricetin (100 μM) or (b) spinacine (50 μM) for 4 h. The indicated concentration of TRAIL along with cycloheximide (5 μg/ml) was added, and the cells were allowed to incubate overnight. Cell viability was measured by MTT assay, and the viability of cells untreated with TRAIL was set at 100%. Experiments were performed in triplicate, and error bars indicate the S.D.
as §2

T1 sequence (P03126 whole entry): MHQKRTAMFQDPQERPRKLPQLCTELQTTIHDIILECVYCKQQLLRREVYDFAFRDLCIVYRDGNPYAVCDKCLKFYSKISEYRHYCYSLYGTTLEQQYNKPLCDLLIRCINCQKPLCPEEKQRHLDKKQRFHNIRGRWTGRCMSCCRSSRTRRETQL
T2 sequence (P03126 whole entry): as above
Chain of GST-caspase 8/His-caspase 8 (Q14790 1-184): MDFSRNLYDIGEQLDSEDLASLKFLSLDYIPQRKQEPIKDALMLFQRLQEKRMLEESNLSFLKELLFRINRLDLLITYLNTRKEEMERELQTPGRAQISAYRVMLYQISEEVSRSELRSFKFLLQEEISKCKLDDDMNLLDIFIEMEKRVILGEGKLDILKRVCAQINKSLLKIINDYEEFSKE

Row | Structure (SMILES) | sensitization to doxorubicin (UMSCC 47) | EC50 (GST-E6/His-E6AP) | EC50 (GST-E6/His-caspase 8) | sensitization to doxorubicin (UM-SCC47-TC-Clone 3) | EC50 for GST-caspase 8/His-caspase 8 interaction [1] | sensitization to doxorubicin (UPCI-SCC90-UP-Clone 35) | sensitivity of C33A cells to TRAIL-mediated apoptosis (C33A cells)
1 | O=C(O)C1Cc2[nH]cnc2CN1 (stereo not shown) [Spinacine (5), 4,5,6,7-tetrahydro-1H-imidazo[4,5–c]pyridine-6-carboxylic acid] | up to 50% | 20 µM | 17 µM | up to 50% | No Inhibition | up to 50% | –
2 | O=c1c(O)c(-c2cc(O)c(O)c(O)c2)oc2cc(O)cc(O)c12 [Myricetin, myricetin, reference compound] | – | – | – | – | – | – | remained resistant
